Results from patent publication US20070128685A1, “Methods and compositions for cell culture” (priority 2005, published 2007).

How the values were obtained:
[1] = test system: Normal human adult chondrocytes and normal rodent chondrocytes; assay: Culture of chondrocytes in supplemented DMEM serum free media; assay type: cell-based; settings: DMEM SFM, Collagenase 5 μg/ml; after 4, 6, and 9 passages
Description: Currently, there is not any SFM commercially available for chondrocytes. Using the serum-containing media available, the life-span of the chondrocytes in culture is very limited (up to 3 to 4 passages, between 10-15 doublings times). Thus, the present example illustrates the use of collagenase and forskolin to allow the used of SFM with chondrocytes.
Normal human adult chondrocytes and normal rodent chondrocytes were cultured in a SFM. Collagenase (5 μg/ml) was added into the DMEM serum free media (SFM) and tested on said primary and secondary chondrocytes cultures.

[2] = test system: Human dermal adult and newborn skin fibroblasts; assay: Proliferation of human dermal fibroblasts in media supplemented with collagenase; assay type: cell-based; settings: primary and secondary culture
Description: Human dermal adult and newborn skin fibroblasts were cultured in a SFM and serum-containing media (DMEM 5% FBS). Collagenase ([…]) was added to the DMEM serum free media (SFM) and tested on primary and secondary culture of human adult and newborn fibroblasts. In both cases (SFM and DMEM 5%) Collagenase increase cell proliferation up to 2-2.5 fold over the controls.

## Collagenase
[1]
  growth of chondrocytes: robust growth
[2]; DMEM serum free media (SFM), Collagenase 1 μg/nl
  increase of cell proliferation over the controls: 2-2.5 fold
[2]; serum-containing media (DMEM 5% FBS)
  increase of cell proliferation over the controls: 2-2.5 fold
